Assay results as given in patent US8648037B2, “Macrocyclic proline derived HCV serine protease inhibitors” (priority 2010, dated 2014).

Assays:
[1] = tested on: HCV R155K variants; details: Bartels 2008, Lu 2004, Zhou 2007; cited from earlier work
[2] = tested on: HCV genotype 1b R155K variant transient replicon; experiment: genotype 1b R155K transient replicon assay; type: cell-based, hepatitis C virus (HCV); details: Hepatitis C virus
[3] = tested on: HCV genotype 1a wild-type transient replicon; experiment: genotype 1a wild-type transient replicon assay; type: cell-based, hepatitis C virus (HCV); details: Hepatitis C virus
[4] = tested on: HCV genotype 1a D168E variant transient replicon; experiment: genotype 1a D168E transient replicon assay; type: cell-based, hepatitis C virus (HCV); details: Hepatitis C virus
[5] = tested on: HCV genotype 1b wild-type transient replicon; experiment: genotype 1b wild-type transient replicon assay; type: cell-based, hepatitis C virus (HCV); details: Hepatitis C virus
[6] = tested on: HCV genotype 3a S138T variant transient replicon; experiment: genotype 3a S138T transient replicon assay; type: cell-based, hepatitis C virus (HCV); details: Hepatitis C virus
[7] = tested on: HCV genotype 3a wild-type stable replicon (chimeric, NS3 gene from genotype 3a isolates); experiment: genotype 3a wild-type stable replicon assay; type: cell-based, hepatitis C virus (HCV); details: Hepatitis C virus
[8] = tested on: HCV genotype 1a R155K variant transient replicon; experiment: genotype 1a R155K transient replicon assay; type: cell-based, hepatitis C virus (HCV); details: Hepatitis C virus
[9] = tested on: HCV genotype 3a wild-type transient replicon; experiment: genotype 3a wild-type transient replicon assay; type: cell-based, hepatitis C virus (HCV); details: Hepatitis C virus
[10] = tested on: HCV genotype 3a A166T variant transient replicon; experiment: genotype 3a A166T transient replicon assay; type: cell-based, hepatitis C virus (HCV); details: Hepatitis C virus
[11] = tested on: HCV genotype 3a Q168R variant transient replicon; experiment: genotype 3a Q168R transient replicon assay; type: cell-based, hepatitis C virus (HCV); details: Hepatitis C virus
[12] = tested on: HCV genotype 1b Con1 stable subgenomic replicon; experiment: genotype 1b Con1 stable replicon assay (luciferase reporter); type: cell-based, hepatitis C virus (HCV); details: Hepatitis C virus
[13] = tested on: HCV genotype 1a D168V variant transient replicon; experiment: genotype 1a D168V transient replicon assay; type: cell-based, hepatitis C virus (HCV); details: Hepatitis C virus
[14] = tested on: HCV genotype 1a (1a-H77) stable subgenomic replicon; experiment: genotype 1a Huh-7 stable replicon assay (luciferase reporter); type: cell-based, hepatitis C virus (HCV); details: Hepatitis C virus, 5% FBS
[15] = tested on: HCV genotype 1b D168V variant transient replicon; experiment: genotype 1b D168V transient replicon assay; type: cell-based, hepatitis C virus (HCV); details: Hepatitis C virus
[16] = tested on: HCV; details: after R155K (danoprevir) or R155K/D168V (vaniprevir) variants detected; cited from earlier work

In the case of `COc1ccc2c(O[C@@H]3C[C@H]4C(=O)N[C@]5(C(=O)O)C[C@H]5/C=C\CCCCC[C@H](NC(=O)OC5CCCC5)C(=O)N4C3)cc(-c3csc(NC(C)C)n3)nc2c1` [BILN 2061], the “resistance conferred by R155K variants” value [1] is given as “high-level resistance”.

With `C=C[C@@H]1C[C@]1(NC(=O)[C@@H]1C[C@@H]2CN1C(=O)[C@H](C(C)(C)C)NC(=O)O[C@@H]1CCC[C@H]1OC/C=C/C(F)(F)c1nc3ccccc3nc1O2)C(=O)NS(=O)(=O)C1CC1` [Example 1] the EC50 [2] was < 1 nM, the EC50 [3] was 0.1 to 1 nM and the EC50 [4] was < 1 nM. For the same molecule, the EC50 [5] was < 1 nM, the EC50 [6] was 100 to 1000 nM and the EC50 [7] was < 10 nM. For the same molecule, the EC50 [8] was 0.1 to 1 nM, the EC50 [9] was 10 to 100 nM and the EC50 [10] was 100 to 500 nM. For the same molecule, the EC50 [11] was 100 to 1000 nM, the EC50 [12] was 1 to 10 nM and the EC50 [13] was 1 to 10 nM. For the same molecule, the EC50 [14] was < 1 nM and the EC50 [15] was < 1 nM.

With `CC(C)(C)[C@@H]1NC(=O)O[C@@H]2CCC[C@H]2OC/C=C/C(F)(F)c2nc3ccccc3nc2O[C@@H]2C[C@@H](C(=O)N[C@]3(C(=O)NS(=O)(=O)C4CC4)C[C@H]3C(F)F)N(C2)C1=O` [Example 2] the EC50 [2] was < 1 nM, the EC50 [3] was 0.1 to 1 nM and the EC50 [4] was < 1 nM. For the same molecule, the EC50 [5] was < 1 nM, the EC50 [6] was 100 to 1000 nM and the EC50 [7] was < 10 nM. The EC50 [8] was < 0.1 nM, the EC50 [9] was < 10 nM and the EC50 [10] was < 100 nM. For the same molecule, the EC50 [11] was 100 to 1000 nM, the EC50 [12] was 1 to 10 nM and the EC50 [13] was < 1 nM. For the same molecule, the EC50 [14] was 1 to 10 nM and the EC50 [15] was 1 to 100 nM.

With `CC[C@@H]1C[C@]1(NC(=O)[C@@H]1C[C@@H]2CN1C(=O)[C@H](C(C)(C)C)NC(=O)O[C@@H]1CCC[C@H]1OC/C=C/C(F)(F)c1nc3ccccc3nc1O2)C(=O)NS(=O)(=O)C1CC1` [Example 4] the EC50 [2] was < 1 nM, the EC50 [3] was 0.1 to 1 nM and the EC50 [4] was < 1 nM. The EC50 [5] was < 1 nM, the EC50 [6] was 100 to 1000 nM and the EC50 [8] was 0.1 to 1 nM. For the same molecule, the EC50 [9] was 10 to 100 nM, the EC50 [10] was 100 to 500 nM and the EC50 [11] was 100 to 1000 nM. For the same molecule, the EC50 [12] was 1 to 10 nM, the EC50 [13] was 10 to 1000 nM and the EC50 [14] was < 1 nM. For the same molecule, the EC50 [15] was 1 to 100 nM.

In the case of `C=C[C@@H]1C[C@]1(NC(=O)[C@@H]1C[C@@H]2CN1C(=O)[C@H](C(C)(C)C)NC(=O)O[C@@H]1CCC[C@H]1OC/C=C/C(F)(F)c1nc3ccccc3nc1O2)C(=O)NS(=O)(=O)C1(C)CC1` [Example 5], the EC50 [2] is reported as < 1 nM, the EC50 [3] is reported as < 0.1 nM and the EC50 [4] is reported as < 1 nM. For the same molecule, the EC50 [5] was < 1 nM, the EC50 [7] was < 10 nM and the EC50 [8] was < 0.1 nM. The EC50 [9] was < 10 nM, the EC50 [10] was < 100 nM and the EC50 [11] was < 100 nM. For the same molecule, the EC50 [12] was 1 to 10 nM, the EC50 [13] was < 1 nM and the EC50 [14] was < 1 nM. The EC50 [15] was < 1 nM.

For `CC(C)(C)[C@@H]1NC(=O)O[C@@H]2CCC[C@H]2OC/C=C/C(F)(F)c2nc3ccccc3nc2O[C@@H]2C[C@@H](C(=O)N[C@]3(C(=O)NS(=O)(=O)C4(C)CC4)C[C@H]3C(F)F)N(C2)C1=O` [Example 6], the EC50 [2] was < 1 nM, the EC50 [3] was < 0.1 nM and the EC50 [4] was < 1 nM. For the same molecule, the EC50 [5] was < 1 nM, the EC50 [6] was < 100 nM and the EC50 [7] was < 10 nM. For the same molecule, the EC50 [8] was < 0.1 nM, the EC50 [9] was < 10 nM and the EC50 [10] was < 100 nM. For the same molecule, the EC50 [11] was < 100 nM, the EC50 [12] was 1 to 10 nM and the EC50 [13] was < 1 nM. The EC50 [14] was < 1 nM and the EC50 [15] was < 1 nM.

For `CC[C@@H]1C[C@]1(NC(=O)[C@@H]1C[C@@H]2CN1C(=O)[C@H](C(C)(C)C)NC(=O)O[C@@H]1CCC[C@H]1OC/C=C/C(F)(F)c1nc3ccccc3nc1O2)C(=O)NS(=O)(=O)C1(C)CC1` [Example 8], the EC50 [2] was < 1 nM, the EC50 [3] was 0.1 to 1 nM and the EC50 [4] was < 1 nM. The EC50 [5] was < 1 nM, the EC50 [6] was 100 to 1000 nM and the EC50 [8] was < 0.1 nM. For the same molecule, the EC50 [9] was 10 to 100 nM, the EC50 [10] was 100 to 500 nM and the EC50 [11] was 100 to 1000 nM. The EC50 [12] was 1 to 10 nM, the EC50 [13] was 1 to 10 nM and the EC50 [14] was < 1 nM. For the same molecule, the EC50 [15] was 1 to 100 nM.

In the case of `CC(C)(C)OC(=O)N[C@H]1CCCCC/C=C\[C@@H]2C[C@@]2(C(=O)NS(=O)(=O)C2CC2)NC(=O)[C@@H]2C[C@@H](OC(=O)N3Cc4cccc(F)c4C3)CN2C1=O` [danoprevir], the “viral load in patients receiving treatment” value [16] is listed as “Viral load rebound” and the “resistance conferred by R155K variants” value [1] is listed as “high-level resistance”.

In the case of `CC[C@@H]1C[C@]1(NC(=O)[C@@H]1C[C@@H]2CN1C(=O)[C@H](C(C)(C)C)NC(=O)OCC(C)(C)CCCCc1cccc3c1CN(C3)C(=O)O2)C(=O)NS(=O)(=O)C1CC1` [vaniprevir], the “viral load in patients receiving treatment” value [16] is given as “viral load rebound”.
